Active and inactive are the calls of the source. The rule behind the calls is not given here.

These results are taken from PubChem BioAssay AID504889 (The Scripps Research Institute Molecular Screening Center, 2011).

For the test, the target named is MCHR1. The experiment in a line: antagonism of melanin-concentrating hormone receptor MCHR1 – cell-based, fluorescence, dose response, set 2, selectivity assay for GPR7 antagonist project, late-stage follow-up (AID 504889). Particulars: MCHR1-expressing cells, antagonist mode.

Broadly, the IC50 is the concentration that inhibits the measured activity by half. As for `COc1ccc(Oc2c(Cl)cnn(-c3cc(C)cc(C)c3)c2=O)cc1`, the IC50 is, setting by setting: (run 1) 3.94 µM; (run 2) 5.04 µM; (run 3) 2.68 µM.
In the case of `COc1ccc(Oc2c(Cl)cnn(-c3ccc(C)cc3)c2=O)cc1`, the IC50 entry (run 1) is “inactive” and the IC50 result (run 2) was “inactive”.
In the case of `CCc1ccc(-n2ncc(Cl)c(Oc3ccc(OC)cc3)c2=O)cc1`, the concentration for half-maximal inhibition (IC50) (run 1) is 3.92 µM. Under “run 2”, the IC50 result was “inactive”.
The matching figures for `Cc1ccc(-n2ncc(Cl)c(Oc3ccc(OC(F)(F)F)cc3)c2=O)cc1`: 2.9 µM and 4.98 µM.
As for `COc1ccc(Oc2c(C)cnn(-c3ccc(C(C)C)cc3)c2=O)cc1`, the IC50 is 9.81 µM (run 1) and 8.05 µM (run 2).
Regarding `Cc1ccc(-n2ncc(Cl)c(Oc3ccc(C(F)(F)F)cc3)c2=O)cc1`, the IC50 runs as follows: (run 1) 5.51 µM; (run 2) 8.4 µM.
Take `COC(=O)c1cnn(-c2ccc(C(C)C)cc2)c(=O)c1Oc1ccc(OC)cc1`: the 50% inhibitory concentration (IC50) by setting is: (run 1) 6.89 µM; (run 2) 4.95 µM.
On to `COc1ccc(Oc2c(Cl)cnn(-c3ccc(C(C)C)cc3)c2=O)cc1`, for which the IC50 reads like this: (run 1) 3.1 µM; (run 2) 4.3 µM.
Consider `CCC(C)c1ccc(-n2ncc(Cl)c(Oc3ccc(OC)cc3)c2=O)cc1` (centres undefined), for which the IC50 is 2.17 µM (run 1) and 4.71 µM (run 2).
On to `COc1ccc(Oc2c(Cl)cnn(-c3ccc(C(C)(C)C)cc3)c2=O)cc1`, for which the IC50 was 2.7 µM (run 1) and 8.99 µM (run 2).
The matching figures for `COc1ccc(Oc2c(C=O)cnn(-c3ccc(C(C)C)cc3)c2=O)cc1`: 4.78 µM and 5.15 µM.
The matching figures for `Cc1ccc(-n2ncc(Cl)c(Oc3ccc(CO)cc3)c2=O)cc1`: > 20 µM (inactive) and > 20 µM (inactive).
Taken in the same sequence, the figures for `COc1ccc(Oc2c(Br)cnn(-c3ccc(C)cc3)c2=O)cc1` were “inactive” and “inactive”.
In the case of `CCOc1ccc(Oc2c(Cl)cnn(-c3ccc(C)cc3)c2=O)cc1`, the IC50 result (run 1) is “inactive”. In addition, the IC50 (run 2) is 8.62 µM.
For the compound `COc1ccc(Oc2c(-c3ccccc3)cnn(-c3ccc(C)cc3)c2=O)cc1`, the IC50 entry (run 1) is “inactive”. For the setting “run 2”, the IC50 is > 20 µM (inactive).
The matching figures for `COc1ccc(Oc2c(Cl)cnn(-c3ccc(C(C)C)c(C)c3)c2=O)cc1`: 1.96 µM and 1.71 µM.
`COc1ccc(Oc2c(C#N)cnn(-c3ccc(C(C)C)cc3)c2=O)cc1`: the half-inhibitory concentration (IC50) (run 1) was 7.47 µM and the IC50 (run 2) was 7.6 µM.
With `COc1ccc(Oc2c(Cl)cnn(-c3cccc4ccccc34)c2=O)cc1`, the half-maximal inhibitory concentration (IC50) runs as follows: (run 1) 8.39 µM; (run 2) 4.46 µM.
For the compound `CCc1ccc(Oc2c(Cl)cnn(-c3ccc(C)cc3)c2=O)cc1`, the half-maximal inhibitory concentration (IC50) (run 1) was 5.02 µM and the IC50 (run 2) is 3.09 µM.
The matching figures for `COc1ccc(Oc2c(Cl)cnn(-c3cccc(C)c3)c2=O)cc1`: 5.39 µM and 6.79 µM.
Taken in the same sequence, the figures for `COc1ccc(Oc2c(C3CC3)cnn(-c3ccc(C)cc3)c2=O)cc1` were 5.41 µM and “inactive”.
Consider `COc1ccc(Oc2c(-c3cccs3)cnn(-c3ccc(C)cc3)c2=O)cc1`, for which the IC50 was > 20 µM (inactive) (run 1) and > 20 µM (inactive) (run 2).
For `COc1ccc(Oc2c(-c3ccco3)cnn(-c3ccc(C)cc3)c2=O)cc1`, the IC50 entry (run 1) is “inactive”. Besides, the IC50 (run 2) was > 20 µM (inactive).
As to `COc1ccc(Oc2c(Cl)cnn(-c3cccc(C(C)C)c3)c2=O)cc1`, the IC50 was 1.72 µM (run 1) and 2.37 µM (run 2).
